Results: US20230159583A1, “COMPOUND FOR TREATING GOUT, PREPARATION METHOD THEREFOR, AND USE THEREOF” (Huazhong Pharmaceutical Co., Ltd., priority 2020, published 2023)
Read-outs that look alike come from different tables or passages of the source.

Key:
Type in all cases: in vivo
[1] = tested on: ICR mice; conditions: p.o.
Protocol: The experiment was designed according to the “Technical Guideline for Acute Toxicity Test of Chemical Drugs” issued by the State Food and Drug Administration in March 2005. The doses administered were 4 g/kg, 4.91 g/kg, 6.14 g/kg, 7.68 g/kg, 9.6 g/kg, 12 g/kg, and 15 g/kg (the dose could be adjusted according to the actual test results), 12 ICR mice per dose group. If the administration volume is greater than 0.5 ml, it is better to perform the drug administration in two or more times (Note: according to the national standard GB 15193.3-2014, if multiple drug administrations are required, the time interval should be 4 h to 6 h each time, and the patient should be fasted on the day before drug administration).

[2] = tested on: rat paw swelling induced by monosodium urate (MSU); experiment: rat paw swelling model induced by monosodium urate (MSU); conditions: for inhibition in vivo at 90 mg/kg / inhibition in vivo at 0.36 mg/kg / inhibition in vivo at 1.8 mg/kg / inhibition in vivo at 9 mg/kg / change in vivo at 90 mg/kg: Rattus norvegicus, po; for inhibition in vivo at 90 mg/kg / inhibition in vivo at 0.36 mg/kg / inhibition in vivo at 1.8 mg/kg / inhibition in vivo at 9 mg/kg: 1 h, read-out: Swelling inhibition rate; for inhibition in vivo at 0.36 mg/kg: dosage 0.36 mg/kg; for inhibition in vivo at 1.8 mg/kg: dosage 1.8 mg/kg; for inhibition in vivo at 9 mg/kg: dosage 9 mg/kg; for change in vivo at 90 mg/kg: read-out: Swelling degree; for Mean volume of paw after administration: 1 h after onset of inflammation (50 μL 2% MSU)
From the text: Gout is a disease unique to human, and gouty arthritis is an inflammatory reaction caused by the deposition of monosodium urate (MSU) in local joint tissues. Since purine metabolism pathways in some mammals such as mice and rabbits are different from those in humans, it is impossible to construct a gouty arthritis model by the method of interfering with purine metabolism disorders, so the most direct method for causing gouty arthritis is to directly inject MSU into the joint cavity of the model animal. The model is only used for simulating local joint inflammation of gout, is suitable for observation of local arthritis symptoms, is a common method for screening anti-inflammatory effects of gout drugs at present, and has the advantages of stability, easy operation and the like. (Reference: Li Na, Hua Long, and Yuan Hui. Research progress of gout animal models [J]. Medical theory and practice, 2016(24).
The anti-gout effect of the compound prepared in the above Example was detected by using a rat paw swelling model induced by monosodium urate (MSU), and the control sample was methylprednisolone.
Experimental method: MSU was used as an inflammatory agent, injected subcutaneously into the hind paws of rats to cause paw swelling, and then the volume of the paws was measured, and the swelling rates and swelling inhibition rates of the treatment group and the control group were compared. On the day of the experiment, the volume of right hind paw (ml) of each rat was measured firstly, and then after the onset of inflammation, the volume of right hind paw was measured so that the difference of volume of paw before and after inflammation was swelling degree, and the swelling inhibition rate of paw (swelling inhibition rate %=(C−T)/C*100%); C=swelling rate of the control group %, and T=swelling rate of the treatment group) was calculated. This method is one of the commonly used methods for screening anti-inflammatory effects of gout drugs, and the model is stable and easy to operate.
(2) One week before the subcutaneous injection of MSU into the feet and soles of the rats, the rats were given different doses of the test drugs, and the drugs were given by gavage once a day, for seven consecutive days. The circumference of the right hind paw was marked and measured before the last administration, and the average value of the two measurements was taken as the standard. 1 h after the last administration, animals in other groups were given 50 μL of 2% MSU in addition to the blank control group, and the paw circumference was measured 1 h after the onset of inflammation. […]

[3] = tested on: carrageenan-induced mouse paw swelling; experiment: carrageenan-induced mouse paw swelling model; conditions: for Circumference of the paw after administration: 180 min after onset of inflammation (0.5% carrageenan); for inhibition in vivo at 0.26 mg/kg / inhibition in vivo at 13 mg/kg / inhibition in vivo at 130 mg/kg / change in vivo at 130 mg/kg: Mus musculus, po, 3 h; for inhibition in vivo at 0.26 mg/kg: dosage 0.26 mg/kg; for inhibition in vivo at 0.26 mg/kg / inhibition in vivo at 13 mg/kg / inhibition in vivo at 130 mg/kg: read-out: Swelling inhibition rate; for inhibition in vivo at 13 mg/kg: dosage 13 mg/kg; for change in vivo at 130 mg/kg: read-out: Swelling degree
Protocol: The anti-inflammatory effects of the compounds prepared in the above Examples were detected using a carrageenan-induced mouse paw swelling model, and the control sample was methylprednisolone:
Carrageenan-induced mouse paw swelling model is a classical acute inflammation model commonly used for evaluating or screening anti-inflammatory effects of drugs. When carrageenan is injected into the paw of mice, a series of reactions similar to human acute inflammation such as local capillary dilatation, increased vascular permeability, exudation and edema can be caused, so the model can be widely used in the evaluation of new drugs.
Reference for experimental method: Yang Huan, Cheng Xiao, Wang Yuehua, Du Guanhua. Effects of esculin on the swelling of toes and inflammation induced by carrageenan in mice [J]. Chinese Journal of New Drugs, 2016(25):2322.
On the day of the experiment, the circumference of right hind paw (cm) of each mouse was measured firstly, and then, after the onset of inflammation, the circumference of right hind paw was measured so that the difference of the circumferences of the paws before and after inflammation was swelling degree, and the swelling inhibition rate of paw (swelling inhibition rate %=(C−T)/C*100%); C=swelling rate of the control group %, and T=swelling rate of the treatment group) was calculated.
(2) Gavage administration was performed once a day for seven consecutive days. The circumference of the right hind paw was marked and measured before the last administration, and the average value of the two measurements was taken as the standard. 30 min after the last administration, 20 μL/mice of 0.5% carrageenan was injected into the right hind ankle of the mice to induce inflammation, and the circumference of paw was measured 180 min after the onset of inflammation. […]

[4] = SD rats, 90 mg/kg by gavage once a day for seven days, 1 h after onset of inflammation
[5] = rat, MSU-induced paw swelling, dosage 90 mg/kg
[6] = SD rats, 90 mg/kg by gavage once a day for seven days
[7] = ICR mice, 130 mg/kg by gavage once a day for seven days, 180 min after onset of inflammation
[8] = ICR mice, 130 mg/kg by gavage once a day for seven days
[9] = mouse, carrageenan-induced paw swelling
[10] = mouse, carrageenan-induced paw swelling, dosage 130 mg/kg

SMILES	Mortality ([1]; 4 g/kg)	Mortality ([1]; 4.91 g/kg)	Mortality ([1]; 6.14 g/kg)	Mortality ([1]; 7.68 g/kg)	Mortality ([1]; 9.6 g/kg)	Mortality ([1]; 12 g/kg)	Mortality ([1]; 15 g/kg)	inhibition in vivo at 90 mg/kg [2, 4] [%]	inhibition in vivo at 0.36 mg/kg ([2]; rat, MSU-induced paw swelling) [%]	inhibition in vivo at 1.8 mg/kg ([2]; rat, MSU-induced paw swelling) [%]	inhibition in vivo at 9 mg/kg ([2]; rat, MSU-induced paw swelling) [%]	inhibition in vivo at 90 mg/kg [2, 5] [%]	change in vivo at 90 mg/kg [2, 4] [%]	Swelling value [2, 4] [mL]	Mean volume of paw after administration [2, 6] [mL]	Swelling value [3, 7] [cm]	Circumference of the paw after administration [3, 8] [cm]	inhibition in vivo at 0.26 mg/kg [3, 9] [%]	inhibition in vivo at 13 mg/kg [3, 9] [%]	inhibition in vivo at 130 mg/kg [3, 10] [%]	also measured
C[C@@H]1C[C@H]2[C@@H]3CCC4=CC(=NO)C=C[C@]4(C)[C@H]3[C@@H](O)C[C@]2(C)[C@H]1/C(CO)=N/O [Example 10]	0/12	0/12	1/12	1/12	3/12	4/12	5/12	68.9	9.21	32.1	51.2	65.2	102	1.24	2.45	0.11	1.58	8.12	30.9	62.4	change in vivo at 130 mg/kg [3, 7]: 7.48%; inhibition in vivo at 130 mg/kg [3, 7]: 61.3%
CCON=C1C=C[C@@]2(C)C(=C1)CC[C@@H]1[C@@H]2[C@@H](O)C[C@@]2(C)[C@H]1C[C@@H](C)[C@]2(O)/C(COC(C)=O)=N/OCC [Example 11]	0/12	0/12	0/12	0/12	0/12	0/12	0/12	64.7	10.2	35.2	49	67.5	116	1.42	2.64	0.1	1.53	15.5	35.8	68.1	change in vivo at 130 mg/kg [3, 7]: 6.99%; inhibition in vivo at 130 mg/kg [3, 7]: 63.9%
CCC(=O)OC/C(=N\O)[C@@]1(O)[C@H](O)C[C@H]2[C@@H]3CCC4=CC(=NO)C=C[C@]4(C)[C@@]3(F)[C@@H](O)C[C@@]21C [Example 14, (2E)-2-((8S,9R,10S,11S,13S,14S,16R,17R)-9-fluoro-11,16,17-trihydroxy (hydroxyimino)-10,13-dimethyl-6,7,8,9,10,11,12,13,14,15,16,17-dodecahydro-3H-cyclopentane[α]phenanthrene-17-yl)-2-(hydroxyimino)ethyl propionate]	0/12	0/12	0/12	0/12	1/12	1/12	3/12	85.6	5.23	34.2	65.2	86.3	47.5	0.56	1.74	0.03	1.45	20.3	49.2	92.1	change in vivo at 130 mg/kg [3, 7]: 2.11%; inhibition in vivo at 130 mg/kg [3, 7]: 89.1%
